Some test systems named below: A549; Hs-578T; SNB-75; PC-3; IGROV-1; HOP-62; HCT-116; RPMI-8226; ACHN; TK-10; NCI-H460; SW-620; NCI-H522; SK-OV-3; CCRF-CEM; SNB-19; CAKI-1; OVCAR-5; Malme-3M; SK-MEL-5.
Assay in all cases: growth of human tumour cells (NCI), 48 h

Each structure is given as a SMILES string.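 Cultured in 96-well plates, cells were exposed to test compound for 48 hours across five concentrations. Here, GI50 denotes the concentration required for 50% inhibition of growth.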 Activity calls are given as the source filed them. Rule as the data show it: active = GI50 up to about 1.1 µM and inactive = higher.

As to `COc1cc(C2c3cc4c(cc3OC(O)C2C)OCO4)cc(OC)c1O` (stereo not given), the GI50 in the experiment on A549 was 7.64 µM (inactive); with Hs-578T, 8.02 µM (inactive); in the experiment with SNB-75, 3.29 µM (inactive); in the experiment on PC-3, 8.49 µM (inactive); in the experiment on IGROV-1, 8.55 µM (inactive); in the experiment with HOP-62 it was 10.7 µM (inactive). The GI50 with HCT-116 was 3.95 µM (inactive); in the experiment on RPMI-8226 it was 7.4 µM (inactive); in the experiment with ACHN, 12.4 µM (inactive); in the experiment on TK-10, 6.95 µM (inactive); in the experiment with NCI-H460 it was 4.85 µM (inactive); with SW-620 it was 4 µM (inactive). The GI50 was 2.12 µM (inactive) in the experiment with NCI-H522; 6.59 µM (inactive) in the experiment with SK-OV-3; 5.19 µM (inactive) in the experiment with CCRF-CEM; 11.6 µM (inactive) with SNB-19; 8.79 µM (inactive) in the experiment on CAKI-1; 46.8 µM (inactive) with OVCAR-5. The values for the GI50 with Malme-3M and with SK-MEL-5 were 3.86 µM (inactive) and 4.66 µM (inactive), respectively.
On to `CCCCCCCCCCCNC=O`, for which the GI50 with A549 was 51.3 µM (inactive); with Hs-578T, 52 µM (inactive); in the experiment with SNB-75, 50.8 µM (inactive); in the experiment on PC-3 it was 23.9 µM (inactive); in the experiment on IGROV-1, 84.7 µM (inactive); in the experiment on HOP-62, > 100 µM (inactive). Also, the GI50 was 33.6 µM (inactive) in the experiment on HCT-116; 28.1 µM (inactive) in the experiment on RPMI-8226; 40.5 µM (inactive) with ACHN; 37.7 µM (inactive) with TK-10; 53.7 µM (inactive) in the experiment on NCI-H460; 48.3 µM (inactive) with SW-620. The GI50 in the experiment on NCI-H522 was 24.5 µM (inactive); in the experiment with SK-OV-3, 75.5 µM (inactive); with CCRF-CEM, 26.5 µM (inactive); in the experiment on SNB-19, > 100 µM (inactive); in the experiment with CAKI-1, 33.3 µM (inactive); in the experiment on OVCAR-5 it was 80.9 µM (inactive). For the same molecule, the GI50 in the experiment on Malme-3M was 54 µM (inactive); in the experiment on SK-MEL-5 it was 36.9 µM (inactive).
With `O=C(O)C(C1NCCS1)N1C(=O)c2ccccc2C1=O` (stereo not given), the GI50 in the experiment with A549, in the experiment on Hs-578T, with SNB-75, in the experiment with PC-3, in the experiment with IGROV-1 and in the experiment with HOP-62 was > 100 µM (inactive) in each case. Also, the GI50 in the experiment with HCT-116, in the experiment with RPMI-8226, in the experiment on ACHN, with TK-10, with NCI-H460 and with SW-620 was > 100 µM (inactive) in each case. Further, the GI50 in the experiment with NCI-H522, with SK-OV-3, in the experiment on CCRF-CEM, in the experiment on SNB-19, in the experiment with CAKI-1 and in the experiment with OVCAR-5 was > 100 µM (inactive) in each case. Further, the GI50 in the experiment on Malme-3M and in the experiment with SK-MEL-5 was > 100 µM (inactive) in each case.
Take `CCN(CC)C(=S)N/N=C(/C)c1cccc(/C(C)=N\NC(=S)N(CC)CC)n1`: the GI50 with A549 was 2.86 µM (inactive); in the experiment with Hs-578T, 5.64 µM (inactive); with SNB-75, 3.21 µM (inactive); in the experiment with PC-3, 3.15 µM (inactive); with IGROV-1, 1.91 µM (inactive); in the experiment with HOP-62, 1.41 µM (inactive). In addition, the GI50 in the experiment with HCT-116 was 2.8 µM (inactive); in the experiment with RPMI-8226, 2.08 µM (inactive); in the experiment on ACHN, 0.678 µM (active); with TK-10, 1.27 µM (inactive); in the experiment with NCI-H460 it was 1.53 µM (inactive); with SW-620 it was 0.951 µM (active). Moreover, the GI50 in the experiment with NCI-H522 was 3.23 µM (inactive); in the experiment with SK-OV-3, 1.96 µM (inactive); in the experiment on CCRF-CEM it was 0.389 µM (active); with SNB-19, 4.39 µM (inactive); in the experiment with CAKI-1 it was 1.29 µM (inactive); in the experiment on OVCAR-5, 3.31 µM (inactive). In addition, the GI50 is 1.45 µM (inactive) in the experiment on Malme-3M and 2.13 µM (inactive) with SK-MEL-5.
As to `O=C(NN1CCCCC1)c1cc2cc(CCl)ccc2oc1=O`, the GI50 was 19.6 µM (inactive) in the experiment with A549; 16.3 µM (inactive) in the experiment on Hs-578T; 18.6 µM (inactive) in the experiment on SNB-75; 14.8 µM (inactive) in the experiment on PC-3; 19.4 µM (inactive) in the experiment on IGROV-1; 19.4 µM (inactive) with HOP-62. Further, the GI50 in the experiment with HCT-116 is 18.2 µM (inactive); in the experiment with RPMI-8226, 24 µM (inactive); in the experiment on ACHN it was 44.5 µM (inactive); with TK-10, 17 µM (inactive); with NCI-H460 it was 14.9 µM (inactive); with SW-620, 23.1 µM (inactive). Besides, the GI50 in the experiment with NCI-H522 is 8.75 µM (inactive); in the experiment on SK-OV-3, 21.9 µM (inactive); with CCRF-CEM, 17.2 µM (inactive); in the experiment on SNB-19, 23.6 µM (inactive); in the experiment on CAKI-1 it was 18.1 µM (inactive); in the experiment with OVCAR-5, 17.2 µM (inactive). Moreover, the figures for the GI50 with Malme-3M and with SK-MEL-5 were 10.5 µM (inactive) and 17.7 µM (inactive), respectively.
Take `O=c1ccc(-c2ccc(-n3ccnc3)cc2)nn1CCO`: the GI50 with A549 was > 100 µM (inactive); in the experiment on Hs-578T, > 100 µM (inactive); in the experiment with SNB-75, 39.9 µM (inactive); with PC-3 it was > 100 µM (inactive); in the experiment on IGROV-1 it was > 100 µM (inactive); with HOP-62, > 100 µM (inactive). Also, the GI50 with HCT-116, with RPMI-8226, with ACHN, in the experiment on TK-10, in the experiment on NCI-H460 and with SW-620 was > 100 µM (inactive) throughout. Also, the GI50 in the experiment with NCI-H522, in the experiment with SK-OV-3, in the experiment with CCRF-CEM, in the experiment on SNB-19, with CAKI-1 and with OVCAR-5 was > 100 µM (inactive) throughout. Besides, the GI50 in the experiment on Malme-3M and in the experiment with SK-MEL-5 was > 100 µM (inactive) in each case.
Consider `O=[N+]([O-])c1cc2oc(COc3ccccc3)nc2cc1Cl`, for which the GI50 in the experiment on A549 was 33.5 µM (inactive); with Hs-578T, 38.6 µM (inactive); with SNB-75, 18.7 µM (inactive); in the experiment on PC-3 it was 38.4 µM (inactive); in the experiment on IGROV-1, 19.5 µM (inactive); in the experiment on HOP-62, 20.4 µM (inactive). Further, the GI50 is 19 µM (inactive) in the experiment with HCT-116; 23.7 µM (inactive) with RPMI-8226; 48.3 µM (inactive) in the experiment on ACHN; 35 µM (inactive) with TK-10; 21.3 µM (inactive) in the experiment with NCI-H460; 43.2 µM (inactive) in the experiment with SW-620. The GI50 is 18 µM (inactive) in the experiment with NCI-H522; 24.9 µM (inactive) in the experiment on SK-OV-3; 27.5 µM (inactive) with CCRF-CEM; 38.8 µM (inactive) with SNB-19; 22.7 µM (inactive) with CAKI-1; 28.4 µM (inactive) in the experiment with OVCAR-5. Besides, the figures for the GI50 with Malme-3M and with SK-MEL-5 were 33.7 µM (inactive) and 12.7 µM (inactive), respectively.
